According to paper PMC8155176, “Reversible modulation of circadian time with chronophotopharmacology” (Nature Communications, 2021):
Where two headings read alike, the source gives them in different places.

Legend:
[1] = target: T1, CKIα (Homo sapiens, UniProt P48729); test: In vitro kinase assay (Kinase Glo), CKIα; assay type: biochemical
T1 construct: purchased Invitrogen PV3850
Protocol: A stock solution of 7.4 mM in DMSO was prepared and thermally adapted by heating to c.a. 100 °C for 1 min. Two series of eight samples were prepared with consecutive three-time dilutions from the stock solution. One of the series (‘dark’ samples) was prepared in dark Eppendorf tube, the other series (‘light’ samples) was pre-irradiated with UV light (365 nm, UV lamp Spectroline, ENB-280/FE, 1 × 8 Watt) for 45 min. For compound 9, 1 mM solution in DMSO was thermally adapted by heating to 80 °C for 2 min and split into two vials. One vial was kept in the dark and the other was irradiated with green light (530 nm, 3x Nichia NCSG219B-V1, 3 × 550 mW, Sahlmann Photochemical Solutions) for 60 min. Both dark-kept and irradiated samples were subjected to 8-point 3-fold dilutions. All the solutions were applied to the well plate under a red lamp in the dark room in order to prevent ambient-light-induced photo-isomerization.
The assays were performed on a white, solid-bottom 384-well plates. The total volume for the reaction is 10.5 µl. Firstly, a solution of CKI and peptide was added to the bottom of the well (9 µL). Next, a corresponding solution of the compound (0.5 μL, final 5% DMSO) followed by 50 μM ATP solution (1 μL) were pipetted into the upper corners of each well. The enzymatic reaction was started by spinning down the plate (1800 x g, 2 min).
By employing this method, all reactions were started at the same time, minimizing variance between different samples. Incubation for 3 h at 30 °C or 2 h at 37 °C allowed for the enzymatic phosphorylation of the substrate peptide. As the reaction started, the wells with ‘light’ samples were irradiated with UV light or kept in dark in case of experiment with compound 9. ‘Dark’ (0 min pre-irradiation) wells were covered with an aluminum sticker from the beginning. After the incubation, 10 μL Kinase Glo® (Promega) was applied into the wells and the luminescent signal was recorded by a plate reader (BioTek Synergy H1 or Cytation).
The total volume for the reaction was 10.5 µl. The reaction mixture contained the following: for CKIδ, 4 ng/µl CKIδ (14-520, Eurofins), 50 µM peptide substrate RKKKAEpSVASLTSQCSYSS corresponding to human PER2 Lys659-Ser674, and CKI buffer (40 mM Tris, 10 mM MgCl2, 0.5 mM DTT, 0.1 mg/ml BSA, pH7.4); for CKIα, 1 ng/µl CKIα (PV3850, Invitrogen), 50 µM CKI peptide substrate (60547-1, Anaspec), and CKI buffer.
The data obtained from the in vitro kinase assay was analyzed using GraphPad software, in which the luminescence outcome is normalized. Normalization is done using a luminescent output of the control that contained high concentration of longdaysin (370 µM) as 100% inhibition and DMSO for 0% inhibition. In all graphs, a dose-response fit was used to obtain

[2] = system: U2OS cells; test: Circadian period assay in Bmal1-dLuc U2OS reporter cells; assay type: cell-based, human
Protocol: Next, we tested if the observed light-dependent CKIα inhibition translates into photomodulation of the circadian period in human U2OS cells (Fig. 2d). The Bmal1-dLuc reporter cell line contains the coding sequence of destabilized luciferase driven by the Bmal1 gene promoter sequence. The cell culture medium for luminescence recording includes a high concentration of luciferin (0.2 mM), a substrate for luciferase, which strongly absorbs UV light (Supplementary Fig. 30). […] As the circadian period change is directly correlated with the potency and concentration of the inhibitor[10], the cells were treated with photoswitchable modulators using a broad range of concentrations.
In comparison to the kinase assay, the direct use of UV light for preventing a thermal back-isomerization of the cis-isomer was not feasible due to the cell-damaging effect and the presence of luciferin in the medium. Therefore, the modulators were kept in the dark or photo-isomerized in DMSO prior to the addition, without further irradiation during the circadian assay. All three modulators lengthened the period in the U2OS cells both in the dark and upon irradiation (Fig. 2d). […] Altogether, based on the efficient generation of the cis-isomer under irradiation, retained potency and promising light-modulation of CKIα inhibition, the meta-substituted modulator 4 was identified as representing lead substitution pattern for further investigation.
Stable U2OS reporter cells harboring Bmal1-dLuc reporter were suspended in phenol red-free culture medium [DMEM (D2902, Sigma) supplemented with 10% fetal bovine serum, 3.5 mg/mL D-glucose, 3.7 mg/mL sodium bicarbonate, 0.29 mg/mL L-glutamine, 100 units/mL penicillin, and 100 µg/mL streptomycin] and plated onto a white, solid-bottom 384-well plates at 30 µL (3000 cells) per well. After 2 days, 40 µL of phenol red-free explant medium [DMEM (D2902, Sigma) supplemented with 2% B27 (Gibco), 10 mM HEPES, 3.5 mg/mL D-glucose, 0.38 mg/mL sodium bicarbonate, 0.29 mg/mL L-glutamine, 100 units/mL penicillin, 100 µg/mL streptomycin, and 0.2 mM luciferin; pH 7.2] was dispensed into each well, followed by the application of 0.5 μL of compounds (dissolved in DMSO; final 0.7% DMSO; pre-irradiated with UV for 60 min, white LED for 10 min, and/or green LED for 60 min when indicated). The plate was covered with an optically clear film, and subjected to irradiation with 530 nm LED lamp (3 × 550 mW, λmax = 530 nm, FWHM 36 nm, Sahlmann Photochemical Solutions) or 400 nm LED lamp (3 × 1000 mW, λmax = 400 nm, FWHM 11.9 nm, Sahlmann Photochemical Solutions) from 12 cm distance for 30 min. Compound handling and irradiation were conducted in a dark room under red lamp illumination. Luminescence was recorded every 100 min in a microplate reader, Infinite M200Pro (Tecan). For the phase control experiments, cellular light irradiation was performed in a dark 32 °C room and luminescence was recorded in a microplate reader Synergy H1 (BioTek) placed in the same room, to avoid possible effect of transient temperature change on the phase. Circadian period and phase were determined from luminescence rhythms by a curve fitting program MultiCycle (Actimetrics). Data from the first day was excluded from analysis, because of transient changes in luminescence upon medium change. Statistical significance was evaluated using two-way analysis of variance (ANOVA) followed by a Sidak’s multiple comparisons test or one-way ANOVA followed by a Tukey’s multiple comparisons test using Prism software (GraphPad Software).

[3] = thermally adapted trans-isomer kept in the dark, read-out: CKIα IC50, dark

T1 sequence (P48729 whole entry): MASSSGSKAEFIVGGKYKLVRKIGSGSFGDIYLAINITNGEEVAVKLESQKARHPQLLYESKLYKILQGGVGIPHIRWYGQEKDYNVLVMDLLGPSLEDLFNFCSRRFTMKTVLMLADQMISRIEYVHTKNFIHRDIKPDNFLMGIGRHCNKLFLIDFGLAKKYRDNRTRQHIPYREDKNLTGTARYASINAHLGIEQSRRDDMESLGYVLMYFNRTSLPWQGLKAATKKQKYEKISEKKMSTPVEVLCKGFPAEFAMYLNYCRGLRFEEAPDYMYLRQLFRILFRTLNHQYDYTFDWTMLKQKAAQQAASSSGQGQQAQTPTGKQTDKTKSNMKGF

CC(C)n1cnc2c(NCc3ccc(F)c(/N=N/c4c(F)cccc4F)c3F)ncnc21 [Compound 9]
potency relative to longdaysin ([1]; CKI activity): comparable to that of longdaysin | fold difference in CKIα IC50 between trans-form and cis-isomer ([1]; green light 530 nm vs dark): 1.5 fold | IC50 ([1]; pre-irradiated with green light (530 nm), 86% cis, read-out: CKIα IC50, 530 nm): 8.2 µM | IC50 [1, 3]: 5.3 µM | period change, first 3 days, kept in dark ([2]; 8 μM (Fig. 5b)): 7 h | period lengthening, dark treatment of green-irradiated cells, additional 3 days ([2]; 8 μM (Fig. 5b)): 5 h | period lengthening, violet light treatment of dark-kept cells ([2]; 8 μM (Fig. 5b)): 8 h | period lengthening after violet light on the third day of green-irradiated cells ([2]; 8 μM, 400 nm in situ (Fig. 5b)): 8 h | period lengthening, three additional days after green light irradiation ([2]; 8 μM, green light 530 nm in cellulo after 3 days (Fig. 5a)): 2 h | period change after photoisomerization with green light in vitro ([2]; 8 µM, green light 530 nm pre-incubation (Fig. 4e)): 1 h | period change, first 3 days, green light-irradiated cells ([2]; 8 μM, green light in cellulo at start (Fig. 5b)): 2 h | period lengthening after green light in vitro and violet light in cellulo ([2]; 8 µM, in situ back-photoisomerization 400 nm (Fig. 4e)): 4 h | period lengthening vs DMSO, three additional days, non-irradiated ([2]; 8 μM, kept dark (Fig. 5a)): 10 h | period lengthening, trans-isomer (dark) ([2]; 8 µM, thermally adapted, dark (Fig. 4e)): 4 h | period change, first 3 days in the dark ([2]; 8 μM, trans-9 applied (Fig. 5a)): 5 h | effect of violet light only on dark samples on the circadian period activity ([2]; violet light 400 nm in cellulo (Fig. 4e)): no effect

Cc1nn(C)c(C)c1/N=N/c1cccc(CNc2ncnc3c2ncn3C(C)C)c1 [Compound 8]
IC50 ([1]; irradiated with UV light (365 nm) before and during the assay, cis-enriched, read-out: CKIα IC50, light): 24 µM | IC50 [1, 3]: 3 µM | fold difference in CKIα inhibition between dark and UV-irradiated sample ([1]; trans vs cis-enriched (365 nm), 5 is stronger under light, the others weaker): 8 fold | effect of UV light irradiation on period lengthening ([2]; UV (365 nm) pre-irradiated): suppressed by UV light irradiation | recovery of biological activity upon back-isomerization with white light ([2]; UV light followed by white light): full recovery | period lengthening effect under dark conditions ([2]; dark): strong period lengthening effect
